Reference: article PMC6114962, “A Phase Ib, open-label, dose-finding study of alpelisib in combination with paclitaxel in patients with advanced solid tumors” (Oncotarget, 2018)
Read-outs that look alike come from different tables or passages of the source.

Tests used:
[1] = Plasma pharmacokinetics of paclitaxel and alpelisib in Cycle 1; format: in vivo, human; details: for AUC(0-inf) / Cmax / Tmax / AUC(0-t): human, plasma; for AUC(0-inf): read-out: AUCinf, geometric mean (CV%); for Cmax: read-out: Cmax, geometric mean (CV%); for AUC(0-t): read-out: AUC0–24, geometric mean (CV%)
Text: (§1) PK samples for alpelisib were collected from all patients.
(§2) Analysis sets were as follows: full analysis set (FAS), all patients who received at least one dose of alpelisib and/or paclitaxel; safety set, all patients who received at least one dose of alpelisib and/or paclitaxel and had at least one valid post-baseline safety assessment; dose-determining set (DDS), all patients from the safety set who during Cycle 1 either met the minimum exposure criterion and had sufficient safety evaluations, or experienced a DLT; and pharmacokinetic analysis set, all patients in the FAS who received at least one dose of alpelisib and/or paclitaxel and had at least one evaluable concentration measurement.

[2] = test system: patients; design: method as in PMID 22184370; details: paclitaxel 80 mg/m^2 QW, 1-hour IV infusion; cited from earlier work
[3] = test system: patients with advanced solid tumors; experiment: Phase Ib dose finding: dose-limiting toxicities and MTD of alpelisib QD plus paclitaxel; format: in vivo, human; details: with paclitaxel 80 mg/m^2 QW; BLRM with EWOC
Procedure: In the dose-finding phase, the primary objective was to determine the MTD and/or recommended Phase II dose (RP2D) of alpelisib QD when administered with paclitaxel 80 mg/m^2 QW in patients with advanced solid tumors, and the secondary objectives were to assess safety and tolerability and to characterize the pharmacokinetic (PK) profile.
Patients received oral alpelisib QD in 28-day cycles (300, 250, or 150 mg) and paclitaxel 80 mg/m^2 QW as a 1-hour (±15 minutes) IV infusion after standard premedication (per local standard practice). Patients received treatment until disease progression, unacceptable toxicity, patient decision, death, or discontinuation for any other reason. […]
An adaptive 5-parameter Bayesian logistic regression model (BLRM) with escalation with overdose control (EWOC) guided the dose-finding of each combination. […] Available data were analyzed after Cycle 1 per cohort of patients to decide the dose for the next cohort and/or determine the MTD/RP2D. […]

[4] = test system: patients with advanced solid tumors; format: in vivo
Procedure: Patients received oral alpelisib QD in 28-day cycles (300, 250, or 150 mg) and paclitaxel 80 mg/m^2 QW as a 1-hour (±15 minutes) IV infusion after standard premedication (per local standard practice). Patients received treatment until disease progression, unacceptable toxicity, patient decision, death, or discontinuation for any other reason.
as §1, §2

[5] = test system: patients with advanced solid tumors; details: cited from earlier work
[6] = test system: patients; details: cited from earlier work
[7] = iv, 80 mg/m^2, paclitaxel 80 mg/m^2 IV, C1D1, alpelisib 150 mg + paclitaxel cohort
[8] = iv, 80 mg/m^2, paclitaxel 80 mg/m^2 IV, C1D1, alpelisib 250 mg + paclitaxel cohort
[9] = iv, paclitaxel 80 mg/m^2 IV, C1D8, alpelisib 150 mg + paclitaxel cohort
[10] = paclitaxel 80 mg/m^2 IV, C1D1, alpelisib 300 mg + paclitaxel cohort
[11] = paclitaxel 80 mg/m^2 IV, C1D8, alpelisib 250 mg + paclitaxel cohort
[12] = alpelisib 150 mg plus paclitaxel
[13] = alpelisib 250 mg plus paclitaxel
[14] = alpelisib 300 mg plus paclitaxel
[15] = po, oral alpelisib 150 mg QD + paclitaxel, C1D8
[16] = po, oral alpelisib 250 mg QD + paclitaxel, C1D8
[17] = po, oral alpelisib 300 mg QD + paclitaxel, C1D8

For `CC(=O)O[C@H]1C(=O)[C@@]2(C)[C@H]([C@H](OC(=O)c3ccccc3)[C@]3(O)C[C@H](OC(=O)[C@H](O)[C@@H](NC(=O)c4ccccc4)c4ccccc4)C(C)=C1C3(C)C)[C@]1(OC(C)=O)CO[C@@H]1C[C@@H]2O` [paclitaxel], the “plasma drug exposure (AUCinf and Cmax), Cycle 1 Day 1 versus Cycle 1 Day 8” value ([1]; absence versus presence of alpelisib, except Cmax at alpelisib 300 mg C1D8) was “comparable”, the AUC(0-inf) [1, 7] was 4360 ng·h/mL and the Cmax [1, 7] was 2650 ng/mL. For the same compound, the AUC(0-inf) [1, 8] was 4320 ng·h/mL, the Cmax [1, 8] was 2770 ng/mL and the Cmax ([1]; iv, 80 mg/m^2, paclitaxel 80 mg/m^2 IV, C1D1, alpelisib 300 mg + paclitaxel cohort) was 2700 ng/mL. The AUC(0-inf) [1, 9] was 4370 ng·h/mL, the Cmax [1, 9] was 2790 ng/mL and the Cmax ([1]; iv, paclitaxel 80 mg/m^2 IV, C1D8, alpelisib 250 mg + paclitaxel cohort) was 2960 ng/mL. The AUC(0-inf) ([1]; iv, paclitaxel 80 mg/m^2 IV, C1D8, alpelisib 300 mg + paclitaxel cohort) was 4470 ng·h/mL, the Tmax ([1]; iv, paclitaxel 80 mg/m^2 IV, C1D8, alpelisib 300 mg + paclitaxel cohort, read-out: Tmax, median (range)) was 0.75 h and the “Tmax, median (range)” value ([1]; paclitaxel 80 mg/m^2 IV, C1D1, alpelisib 150 mg + paclitaxel cohort) was 1 (0.87–1.17) [8] hours. For the same compound, the “Tmax, median (range)” value ([1]; paclitaxel 80 mg/m^2 IV, C1D1, alpelisib 250 mg + paclitaxel cohort) was 1 (0.45–1.05) [3] hours, the “AUCinf, geometric mean (CV%)” value [1, 10] was 5000 (24) [5] ng·hr/ml and the “Tmax, median (range)” value [1, 10] was 1 (0.5–1.28) [5] hours. The “Tmax, median (range)” value ([1]; paclitaxel 80 mg/m^2 IV, C1D8, alpelisib 150 mg + paclitaxel cohort) was 1 (0.5–1.07) [9] hours, the “AUCinf, geometric mean (CV%)” value [1, 11] was 5000 (42.7) [2] ng·hr/ml and the “Tmax, median (range)” value [1, 11] was 0.8 (0.5–1.17) [3] hours. The “Cmax, geometric mean (CV%)” value ([1]; paclitaxel 80 mg/m^2 IV, C1D8, alpelisib 300 mg + paclitaxel cohort) was 1250 (114) [6] ng/ml, the “all-grade AE: abdominal pain” value [2] was 33% and the “all-grade AE: alopecia” value [2] was 36%. For the same compound, the “all-grade AE: fatigue” value [2] was 47%, the “all-grade AE: nausea” value [2] was 31% and the “all-grade AE: peripheral neuropathy” value [2] was 31%.
With `Cc1nc(NC(=O)N2CCC[C@H]2C(N)=O)sc1-c1ccnc(C(C)(C)C(F)(F)F)c1` [alpelisib] the “MTD of alpelisib when administered with paclitaxel” value [3] was 150 mg QD, the “rate of alpelisib dose interruption” value [4, 12] was 66.7% and the “rate of alpelisib dose reduction (at least one)” value (“rate of alpelisib dose reduction” for short) [4, 12] was 22.2%. The “rate of alpelisib dose interruption” value [4, 13] was 75.0%, the “rate of alpelisib dose reduction” value [4, 13] was 50.0% and the “rate of alpelisib dose interruption” value [4, 14] was 66.7%. For the same compound, the “rate of alpelisib dose reduction” value [4, 14] was 66.7%, the “impact of steady-state alpelisib exposure on paclitaxel metabolism” value ([1]; alpelisib 150–300 mg) was “no impact” and the “Cmax and AUC0-24 after oral administration versus dose” value ([1]; alpelisib 150–300 mg QD) was “increased in a dose-dependent manner”. For the same compound, the Tmax ([1]; oral, Cycle 1 Day 8, alpelisib 150–300 mg, read-out: Median time to maximum concentration (Tmax) across dose levels) was 3.17 to 4.17 h, the AUC(0-t) [1, 15] was 13800 ng·h/mL and the Cmax [1, 15] was 1390 ng/mL. It also gave a Tmax ([1]; po, oral alpelisib 150 mg QD + paclitaxel, C1D8, read-out: Tmax, median (range)) of 3.17 h, an AUC(0-t) [1, 16] of 27700 ng·h/mL and a Cmax [1, 16] of 3750 ng/mL. The Tmax ([1]; po, oral alpelisib 250 mg QD + paclitaxel, C1D8, read-out: Tmax, median (range)) was 3.23 h, the AUC(0-t) [1, 17] was 37100 ng·h/mL and the Cmax [1, 17] was 3000 ng/mL. The Tmax ([1]; po, oral alpelisib 300 mg QD + paclitaxel, C1D8, read-out: Tmax, median (range)) was 4.17 h, the “Grade 3/4 AE: hyperglycemia” value ([5]; single-agent alpelisib 30–450 mg QD or 120–200 mg twice daily, N=134) was 23.9% and the “all-grade treatment-related AE: hyperglycemia” value ([5]; single-agent alpelisib, N=134) was 51.5%. The “maximum tolerated dose (MTD), single agent” value ([5]; single-agent alpelisib, advanced solid tumors) was 400 mg once daily (QD), the “hyperglycemia DLT during dose finding” value ([5]; single-agent alpelisib, seven of 68 evaluable patients) was 10.3% and the “dose from which preliminary anti-tumor activity was exhibited” value ([5]; single-agent alpelisib, solid tumors) was at least 270 mg QD. The “all-grade treatment-related AE: decreased appetite” value ([5]; single-agent alpelisib) was 41.8%, the “all-grade treatment-related AE: diarrhea” value ([5]; single-agent alpelisib) was 40.3% and the “all-grade treatment-related AE: nausea” value ([5]; single-agent alpelisib) was 50.0%. The “all-grade treatment-related AE: vomiting” value ([5]; single-agent alpelisib) was 31.3%, the “MTD of alpelisib with nab-paclitaxel” value ([6]; Phase I study (N=10)) was “not reached” and the “recommended Phase II dose, alpelisib” value ([6]; plus nab-paclitaxel 100 mg/m^2 IV weekly) was 350 mg daily.
